# Data taken from PubChem BioAssay AID1117361 (Southern Research Institute, 2015).
# Target: Protein Tat (Human immunodeficiency virus type 1 group M subtype B (isolate HXB2)) (UniProt P04608)
# Test: HIV-1 Tat–TAR interaction blockers – biochemical, fluorescence polarization, FAM-labeled TAR RNA, counter-screen for Vif-APOBEC3G degradation inhibitor project, dose response (AID 1117361)
# Conditions: Tat-TAR RNA binding
# Chain of Protein Tat (Human immunodeficiency virus type 1 group M subtype B (isolate HXB2)) (P04608 whole entry, looked up): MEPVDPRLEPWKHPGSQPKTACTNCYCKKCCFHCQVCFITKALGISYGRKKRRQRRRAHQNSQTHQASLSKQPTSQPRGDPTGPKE
row,SMILES,IC50
1,Clc1ccccc1N=Nc1ccccn1,35 µM
2,O=C(O)C1Nc2c(Cl)cc(Cl)c(Cl)c2C2C=CCC12 (stereo not drawn),45.9 µM
3,O=C(Cc1cc(=O)[nH][nH]1)N/N=C/C=C/c1ccccc1,43.1 µM
4,N#CC(C#N)=Cc1cccn1-c1ccc(C(=O)O)cc1,33.3 µM
5,O=C(NCCO)Nc1ccc2nc(-c3ccco3)c(-c3ccco3)nc2c1,1.76 µM
6,Nc1cc(N)c(OCC(F)(F)F)cc1OCC(F)(F)F,11.4 µM
7,CC(C)Cn1c(SCC(=O)NC(=O)Nc2ccc3c(c2)OCCO3)nc2ccccc2c1=O,1.62 µM
8,CC(C)c1ccc(N2C(=O)NC(=O)/C(=C\C=C\c3ccco3)C2=O)cc1,34.2 µM
9,CCOC(=O)c1ccc(CC(=O)c2ccc(O)c(O)c2O)o1,74 µM
10,Cc1ccc(C(=O)Nc2ccc(O)c(C(=O)O)c2)o1,19.4 µM
11,Cc1cc(-c2cc(-c3ccc(Cl)cc3)nc(N)c2C#N)co1,83.6 µM
12,COc1cc(CNc2ccc(O)cc2)cc(Br)c1OCc1ccccc1,34.5 µM
13,Cc1cc2c(N)cccc2nn1,2.08 µM
14,CC(C)NC[C@@H](O)c1ccc(O)c(O)c1,5.21 µM
15,COc1ccc(C2=NCC(=O)N(CC(=O)NCc3ccco3)c3sc4c(c32)CCCC4)cc1OC,82.3 µM
16,CCCCC(=O)NC(=S)Nc1cc(C(=O)O)ccc1Cl,51.2 µM
17,CCn1c2ccccc2c2cc(NC(=O)c3ccccc3[N+](=O)[O-])ccc21,43.8 µM
18,CCOc1cccc(=O)c2c(C)oc(C)c12,22.6 µM
19,CCc1cc(=O)n2[nH]c(C)c(-c3ccccc3OC)c2n1,12.7 µM
20,O=C1C=CC(=O)c2c(O)c(CO)c(CO)c(O)c21,3.48 µM
21,NC(CO)C(=O)NNCc1ccc(O)c(O)c1O (stereo not drawn),8.84 µM
22,CC1(CCl)N([O-])C2=C(CCCC2)[N+]1=O (stereo not drawn),44.6 µM
23,Oc1ccc(NCc2cccc(OCc3ccc(F)cc3)c2)cc1,68.7 µM
24,S=c1[nH]nc(-c2cccnc2)n1/N=C/C=C/c1ccco1,5.3 µM

row,SMILES,IC50
1,O=C1CC(Nc2ccc(N3CCOCC3)cc2)C(=O)N1C1CCCCC1 (stereo not drawn),11.6 µM
2,COc1cc(CNCCc2ccc(F)cc2)ccc1OCc1ccc(Cl)nc1,9.8 µM
3,CCOC(=O)c1cc2cc(F)ccc2nc1C,6.24 µM
4,Cc1ccc([C@@H]2C3COCC=C3C(C#N)=C(N)C2(C#N)C#N)o1 (stereo partly drawn),4.05 µM
5,CC(=O)Nc1ccc(S(=O)(=O)NCCSCc2ccco2)cc1,65.8 µM
6,Cc1ccc2cc(CN(Cc3nnnn3Cc3ccco3)CC3CCCO3)c(=O)[nH]c2c1C (stereo not drawn),29.4 µM
7,CCC(=O)N1N=C(c2ccc(NS(C)(=O)=O)cc2)CC1c1ccc(C)cc1 (stereo not drawn),88.8 µM
8,Cc1ccc(C)n1-c1ccc(C(=O)O)cc1,9.09 µM
9,CCc1ccc(N2C(=O)NC(=O)/C(=C\C=C\c3ccco3)C2=O)cc1,45 µM
10,O=C1C2C3CCCC3=C3CCCC3C2C(=O)N1c1ccccc1 (stereo not drawn),8.28 µM
11,CC(/C=C1\SC(=S)N(CCCC(=O)Nc2ccc(C(=O)O)c(O)c2)C1=O)=C\c1ccccc1,26 µM
12,COc1ccc(-n2c(C)cc(C(=O)CSc3nn4c(=O)c(C(C)(C)C)nnc4s3)c2C)cc1,62.7 µM
13,CCOC1(OCC)N=C(N)C2(C#N)C(c3cccc(OC)c3OC)C12C#N (stereo not drawn),1.59 µM
14,Cn1c(=O)c2c(ncn2CC(=O)N/N=C/C=C/c2ccco2)n(C)c1=O,17.1 µM
15,CCCOc1ccc(Cc2nn3c(=O)/c(=C/c4ccco4)sc3nc2=O)cc1,2.68 µM
16,Nc1ncnc2oc(-c3ccco3)c(-c3ccco3)c12,3.36 µM
17,CN(C)S(=O)(=O)c1cccc(NC(=S)N/N=C/c2ccc(O)c(O)c2O)c1,23.2 µM
18,O=C1c2sc3nc4n(c(=O)c3c2CCC1Br)CCCCC4 (stereo not drawn),4.82 µM
19,COc1ccc(/C=N/NC(=O)c2cc(O)c(O)c(O)c2)cc1Cn1cc([N+](=O)[O-])cn1,46.7 µM
20,Oc1ccc(NCc2cccc(OCc3ccccc3)c2)cc1,66.7 µM
21,CC(C)N1C(=O)CC(Nc2ccc(N3CCOCC3)cc2)C1=O (stereo not drawn),16 µM
22,O=C1CC(c2ccco2)CC(O)=C1C=Nc1ccc(Br)cc1 (stereo not drawn),77.6 µM
23,Clc1ccc(OCc2nn3c(-c4ccco4)nnc3s2)c(Cl)c1,51.5 µM
24,CN1CCC(N(C)C(=O)COc2ccccc2-c2ccccc2)CC1,63.7 µM
